What follows are compounds tested against T1, Axl (Homo sapiens, UniProt P30530) (assay: Axl NanoBRET intracellular kinase assay (Cell Binding)). Conditions: HEK-293 cells transfected with Axl-NanoLuc fusion vector; displacement of K-5 NanoBRET tracer.
T1 sequence (P30530 26-894): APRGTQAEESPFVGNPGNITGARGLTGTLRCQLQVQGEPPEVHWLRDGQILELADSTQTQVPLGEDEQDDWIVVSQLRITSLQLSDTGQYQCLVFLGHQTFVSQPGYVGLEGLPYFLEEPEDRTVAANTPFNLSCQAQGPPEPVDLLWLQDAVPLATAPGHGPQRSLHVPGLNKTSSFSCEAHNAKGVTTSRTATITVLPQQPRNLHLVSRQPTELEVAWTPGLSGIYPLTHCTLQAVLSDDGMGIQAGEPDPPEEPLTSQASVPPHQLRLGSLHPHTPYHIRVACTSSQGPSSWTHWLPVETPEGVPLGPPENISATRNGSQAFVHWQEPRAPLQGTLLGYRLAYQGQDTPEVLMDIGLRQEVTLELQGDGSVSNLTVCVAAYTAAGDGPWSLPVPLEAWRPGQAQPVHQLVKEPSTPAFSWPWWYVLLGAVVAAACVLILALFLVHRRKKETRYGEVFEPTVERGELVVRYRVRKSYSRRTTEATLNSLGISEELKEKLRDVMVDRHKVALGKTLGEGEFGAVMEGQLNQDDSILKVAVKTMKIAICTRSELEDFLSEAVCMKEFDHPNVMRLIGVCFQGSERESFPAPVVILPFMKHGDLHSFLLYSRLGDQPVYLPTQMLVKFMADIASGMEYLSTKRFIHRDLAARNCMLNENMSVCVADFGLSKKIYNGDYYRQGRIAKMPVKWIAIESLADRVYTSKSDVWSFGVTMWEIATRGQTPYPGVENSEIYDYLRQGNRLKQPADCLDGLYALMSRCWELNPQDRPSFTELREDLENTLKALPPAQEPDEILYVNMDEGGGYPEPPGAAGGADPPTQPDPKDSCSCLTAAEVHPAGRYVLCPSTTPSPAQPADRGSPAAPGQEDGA
Set-up: host or cells: HEK-293
Summary of the method: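 In intact HEK-293 cells transiently expressing NanoLuc-tagged Axl, compounds compete with the K-5 tracer (0.35 μM, 2 h, 37 °C) after a 1 h preincubation. Readout is the 610/450 nm emission ratio.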

| IC50 | SMILES |
| --- | --- |
| < 100 nM | C[C@@H]1CCCN1C1CCc2ccc(-c3cnc4[nH]nc(-c5ccc6c(c5)OCC5(CCC5)NC6=O)c4c3)cc2CC1 (stereo partly drawn) [Example 37, 8-(5-{7-[(2R)-2-Methylpyrrolidin-1-yl]-6,7,8,9-tetrahydro-5H-benzo[7]annulen-2-yl}-1H-pyrazolo[3,4-b]pyridin-3-yl)-4,5-dihydro-2H-spiro[1,4-benzoxazepine-3,1′-cyclobutan]-5-one] |
| < 100 nM | C[C@H]1CCCN1C1CCc2ccc(-c3cnc4[nH]nc(-c5ccc6c(c5)OCCNC6=O)c4c3)cc2CC1 (stereo partly drawn) [Example 43, 8-(5-{7-[(2S)-2-Methylpyrrolidin-1-yl]-6,7,8,9-tetrahydro-5H-benzo[7]annulen-2-yl}-1H-pyrazolo[3,4-b]pyridin-3-yl)-2,3,4,5-tetrahydro-1,4-benzoxazepin-5-one] |
| < 100 nM | Cc1c(-c2n[nH]c3ncc(-c4ccc5c(c4)CCC(N4CCC[C@H]4C)CC5)cc23)ccc2c1OCCNC2=O (stereo partly drawn) [Example 41, 9-Methyl-8-(5-{7-[(2R)-2-methylpyrrolidin-1-yl]-6,7,8,9-tetrahydro-5H-benzo[7]annulen-2-yl}-1H-pyrazolo[3,4-b]pyridin-3-yl)-2,3,4,5-tetrahydro-1,4-benzoxazepin-5-one] |
| 100 to 1000 nM | O=C1NCCOc2cc(-c3n[nH]c4ncc(-c5ccc6c(c5)CNCC6)cc34)ccc21 [Example 55, 8-(5-(1,2,3,4-Tetrahydroisoquinolin-7-yl)-1H-pyrazolo[3,4-b]pyridin-3-yl)-3,4-dihydrobenzo[f][1,4]oxazepin-5(2H)-one] |

Second part, the compound before the results:

| SMILES | IC50 |
| --- | --- |
| CC[C@@H]1CCCN1C1CCc2ccc(-c3cnc4[nH]nc(-c5ccc6c(c5)OCCNC6=O)c4c3)cc2CC1 (stereo partly drawn) [Example 25, 8-(5-{7-[(2R)-2-Ethylpyrrolidin-1-yl]-6,7,8,9-tetrahydro-5H-benzo[7]annulen-2-yl}-1H-pyrazolo[3,4-b]pyridin-3-yl)-2,3,4,5-tetrahydro-1,4-benzoxazepin-5-one] | < 100 nM |
| CC(C)(O)C(=O)N1CCc2ccc(-c3cnc4[nH]nc(-c5ccc6c(c5)OCCNC6=O)c4c3)cc2CC1 [Example 19, 8-(5-(3-(2-Hydroxy-2-methylpropanoyl)-2,3,4,5-tetrahydro-1H-benzo[d]azepin-7-yl)-1H-pyrazolo[3,4-b]pyridin-3-yl)-3,4-dihydrobenzo[f][1,4]oxazepin-5(2H)-one] | 100 to 1000 nM |
| O=C1NCCOc2cc(-c3n[nH]c4ncc(-c5ccc6c(c5)CC(N5CCCC5)CC6)cc34)ccc21 (centres unmarked) [Example 3, 8-{5-[7-(Pyrrolidin-1-yl)-5,6,7,8-tetrahydronaphthalen-2-yl]-1H-pyrazolo[3,4-b]pyridin-3-yl}-2,3,4,5-tetrahydro-1,4-benzoxazepin-5-one] | 100 to 1000 nM |
| O=C1NCCOc2cc(-c3n[nH]c4ncc(-c5ccc6c(c5)CCC(N[C@@H]5CCOC5)C6)cc34)ccc21 (stereo partly drawn) [Example 5, 8-[5-(6-{[(3R)—Oxolan-3-yl]amino}-5,6,7,8-tetrahydronaphthalen-2-yl)-1H-pyrazolo[3,4-b]pyridin-3-yl]-2,3,4,5-tetrahydro-1,4-benzoxazepin-5-one] | < 100 nM |
| C[C@H]1CCCN1C1(C)CCc2ccc(-c3cnc4[nH]nc(-c5ccc6c(c5)OCCNC6=O)c4c3)cc2CC1 (stereo partly drawn) [Example 24, 8-(5-{7-Methyl-7-[(2S)-2-methylpyrrolidin-1-yl]-6,7,8,9-tetrahydro-5H-benzo[7]annulen-2-yl}-1H-pyrazolo[3,4-b]pyridin-3-yl)-2,3,4,5-tetrahydro-1,4-benzoxazepin-5-one] | < 100 nM |
| C[C@@H]1CCCN1C1(C)CCc2ccc(-c3cnc4[nH]nc(-c5ccc6c(c5)OCCNC6=O)c4c3)cc2CC1 (stereo partly drawn) [Example 23, 8-(5-{7-Methyl-7-[(2R)-2-methylpyrrolidin-1-yl]-6,7,8,9-tetrahydro-5H-benzo[7]annulen-2-yl}-1H-pyrazolo[3,4-b]pyridin-3-yl)-2,3,4,5-tetrahydro-1,4-benzoxazepin-5-one] | < 100 nM |
| CC1(C)COc2cc(-c3n[nH]c4ncc(-c5ccc6c(c5)CCC(N5CCCC5)CC6)cc34)ccc2C(=O)N1 (centres unmarked) [Example 35, 3,3-Dimethyl-8-{5-[7-(pyrrolidin-1-yl)-6,7,8,9-tetrahydro-5H-benzo[7]annulen-2-yl]-1H-pyrazolo[3,4-b]pyridin-3-yl}-2,3,4,5-tetrahydro-1,4-benzoxazepin-5-one] | < 100 nM |

— patent US20240226115A1, “AXL INHIBITOR COMPOUNDS” (ARCUS BIOSCIENCES, INC., priority 2021, published 2024)
